Experimental data as given in PubChem BioAssay (NCI).
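Briefly, cells in 96-well plates were exposed to five compound concentrations for 48 h, and endpoints were estimated by linear interpolation. Here, GI50 denotes the concentration required for 50% inhibition of growth. TGI is the concentration that stops growth completely.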

What was measured:
Assay in all cases: DTP human tumour cell line panel, 48 h
M14 melanoma = test system: M14 melanoma
RXF 393 renal = test system: RXF 393 renal
A498 renal = test system: A498 renal
CCRF-CEM leukemia = test system: CCRF-CEM leukemia
DU-145 prostate = test system: DU-145 prostate
LOX IMVI melanoma = test system: LOX IMVI melanoma
IGROV1 ovarian = test system: IGROV1 ovarian
HCT-116 colon = test system: HCT-116 colon
NCI/ADR-RES ovarian = test system: NCI/ADR-RES ovarian
OVCAR-4 ovarian = test system: OVCAR-4 ovarian
OVCAR-8 ovarian = test system: OVCAR-8 ovarian
MALME-3M melanoma = test system: MALME-3M melanoma
TK-10 renal = test system: TK-10 renal
SK-OV-3 ovarian = test system: SK-OV-3 ovarian
SF-539 CNS = test system: SF-539 CNS
MDA-MB-435 = test system: MDA-MB-435
U251 CNS = test system: U251 CNS
HCC-2998 colon = test system: HCC-2998 colon
SF-295 CNS = test system: SF-295 CNS
SF-268 CNS = test system: SF-268 CNS
SNB-75 CNS = test system: SNB-75 CNS
CAKI-1 renal = test system: CAKI-1 renal
HOP-92 NSCLC = test system: HOP-92 NSCLC
NCI-H522 lung = test system: NCI-H522 lung
T-47D breast = test system: T-47D breast
SR leukemia = test system: SR leukemia
NCI-H460 lung = test system: NCI-H460 lung
UO-31 renal = test system: UO-31 renal
MCF7 breast = test system: MCF7 breast
RPMI-8226 leukemia = test system: RPMI-8226 leukemia
UACC-62 melanoma = test system: UACC-62 melanoma
SN12C renal = test system: SN12C renal
UACC-257 melanoma = test system: UACC-257 melanoma
MOLT-4 leukemia = test system: MOLT-4 leukemia
786-0 renal = test system: 786-0 renal
SW-620 colon = test system: SW-620 colon
KM12 colon = test system: KM12 colon
K-562 leukemia = test system: K-562 leukemia
HS 578T breast = test system: HS 578T breast
HOP-62 NSCLC = test system: HOP-62 NSCLC
ACHN renal = test system: ACHN renal
PC-3 prostate = test system: PC-3 prostate
EKVX NSCLC = test system: EKVX NSCLC
HCT-15 colon = test system: HCT-15 colon
SK-MEL-2 melanoma = test system: SK-MEL-2 melanoma
BT-549 breast = test system: BT-549 breast
NCI-H226 lung = test system: NCI-H226 lung
MDA-MB-231 breast = test system: MDA-MB-231 breast
SNB-19 CNS = test system: SNB-19 CNS
OVCAR-5 ovarian = test system: OVCAR-5 ovarian

## N#C/C(=C\c1ccc(-c2ccc(F)cc2)o1)C(=O)Nc1ncc(Cc2ccc(Cl)cc2Cl)s1
M14 melanoma
  GI50: 2.91 µM
  TGI: 23.6 µM
RXF 393 renal
  GI50: 2.28 µM
  TGI: 5.78 µM
A498 renal
  GI50: 3.03 µM
  TGI: 22 µM
CCRF-CEM leukemia
  GI50: 4.23 µM
  TGI: > 100 µM
DU-145 prostate
  GI50: 4.19 µM
  TGI: > 100 µM
LOX IMVI melanoma
  GI50: 1.64 µM
  TGI: 3.43 µM
IGROV1 ovarian
  GI50: 2.47 µM
  TGI: 7.54 µM
HCT-116 colon
  GI50: 2.9 µM
  TGI: 10.9 µM
NCI/ADR-RES ovarian
  GI50: 3.55 µM
  TGI: > 100 µM
OVCAR-4 ovarian
  GI50: 2.99 µM
  TGI: 9.23 µM
OVCAR-8 ovarian
  GI50: 2.94 µM
  TGI: 16.7 µM
MALME-3M melanoma
  GI50: 2.87 µM
  TGI: 9.18 µM
TK-10 renal
  GI50: 9.27 µM
  TGI: 30 µM
SK-OV-3 ovarian
  GI50: 8.63 µM
  TGI: 34.9 µM
SF-539 CNS
  GI50: 2.95 µM
  TGI: 8.8 µM
MDA-MB-435
  GI50: 2.95 µM
  TGI: > 100 µM
U251 CNS
  GI50: 2.04 µM
  TGI: 4.11 µM
HCC-2998 colon
  GI50: 3.36 µM
  TGI: > 100 µM
SF-295 CNS
  GI50: 1.92 µM
  TGI: 4.27 µM
SF-268 CNS
  GI50: 3.15 µM
  TGI: 22.6 µM
SNB-75 CNS
  GI50: 6.2 µM
  TGI: 28.4 µM
CAKI-1 renal
  GI50: 3.05 µM
  TGI: 16.7 µM
HOP-92 NSCLC
  GI50: 2.17 µM
  TGI: 9.16 µM
NCI-H522 lung
  GI50: 3.49 µM
  TGI: 34.6 µM
T-47D breast
  GI50: 2.75 µM
  TGI: 29.8 µM
SR leukemia
  GI50: 0.778 µM
  TGI: 12.2 µM
NCI-H460 lung
  GI50: 1.76 µM
  TGI: 3.64 µM
UO-31 renal
  GI50: 5 µM
  TGI: > 100 µM
MCF7 breast
  GI50: 2.21 µM
  TGI: 8.67 µM
RPMI-8226 leukemia
  GI50: 4.33 µM
  TGI: > 100 µM
UACC-62 melanoma
  GI50: 3.71 µM
  TGI: > 100 µM
SN12C renal
  GI50: 2.48 µM
  TGI: 8.64 µM
UACC-257 melanoma
  GI50: 4.23 µM
  TGI: > 100 µM
MOLT-4 leukemia
  GI50: 5.24 µM
  TGI: > 100 µM
786-0 renal
  GI50: 2.69 µM
  TGI: 10 µM
SW-620 colon
  GI50: 1.79 µM
  TGI: 4.66 µM
KM12 colon
  GI50: > 100 µM
  TGI: > 100 µM
K-562 leukemia
  GI50: 3.48 µM
  TGI: > 100 µM
HS 578T breast
  GI50: 3.19 µM
  TGI: 27.9 µM
HOP-62 NSCLC
  GI50: 3.71 µM
  TGI: 16.8 µM
ACHN renal
  GI50: 3.52 µM
  TGI: 13.9 µM
PC-3 prostate
  GI50: 2.19 µM
  TGI: 6.04 µM
EKVX NSCLC
  GI50: 2.32 µM
  TGI: 6.88 µM
HCT-15 colon
  GI50: 2.38 µM
  TGI: > 100 µM
SK-MEL-2 melanoma
  GI50: 2.91 µM
  TGI: 16 µM
BT-549 breast
  GI50: 1.98 µM
  TGI: 4.65 µM
NCI-H226 lung
  GI50: 2.83 µM
  TGI: 8.52 µM
MDA-MB-231 breast
  GI50: 3.67 µM
  TGI: 32.2 µM
SNB-19 CNS
  GI50: 4.63 µM
  TGI: 29.5 µM
OVCAR-5 ovarian
  GI50: 4.06 µM
  TGI: > 100 µM
